Key:
Format in all cases: functional
Helicoverpa assulta [1] = assay: Insecticidal activity against sixth-instar larvae of Helicoverpa assulta HN2 at 1.8 to 183360 mg/l after 48 hr by chi-squared analysis
Helicoverpa assulta [2] = assay: Insecticidal activity against sixth-instar larvae of Helicoverpa assulta YN8 at 1.8 to 183360 mg/l after 48 hr by chi-squared analysis
Helicoverpa assulta [3] = assay: Resistance factor, ratio of LD50 for sixth-instar larvae of Helicoverpa assulta HB1 to LD50 for sixth-instar larvae of Helicoverpa assulta at 1.8 to 183360 mg/l
Helicoverpa assulta [4] = assay: Resistance factor, ratio of LD50 for sixth-instar larvae of Helicoverpa assulta GZ1 to LD50 for sixth-instar larvae of Helicoverpa assulta at 1.8 to 183360 mg/l
Helicoverpa assulta [5] = assay: Resistance factor, ratio of LD50 for sixth-instar larvae of Helicoverpa assulta GZ3 to LD50 for sixth-instar larvae of Helicoverpa assulta at 1.8 to 183360 mg/l
Helicoverpa assulta [6] = assay: Insecticidal activity against sixth-instar larvae of Helicoverpa assulta GZ1 at 1.8 to 183360 mg/l after 48 hr by chi-squared analysis
Helicoverpa assulta [7] = assay: Insecticidal activity against sixth-instar larvae of Helicoverpa assulta FJ1 at 1.8 to 183360 mg/l after 48 hr by chi-squared analysis
Helicoverpa assulta [8] = assay: Resistance factor, ratio of LD50 for sixth-instar larvae of Helicoverpa assulta YN3 to LD50 for sixth-instar larvae of Helicoverpa assulta at 1.8 to 183360 mg/l
Helicoverpa assulta [9] = assay: Resistance factor, ratio of LD50 for sixth-instar larvae of Helicoverpa assulta YN1 to LD50 for sixth-instar larvae of Helicoverpa assulta at 1.8 to 183360 mg/l
Helicoverpa assulta [10] = assay: Resistance factor, ratio of LD50 for sixth-instar larvae of Helicoverpa assulta AH3 to LD50 for sixth-instar larvae of Helicoverpa assulta at 1.8 to 183360 mg/l
Helicoverpa assulta [11] = assay: Resistance factor, ratio of LD50 for sixth-instar larvae of Helicoverpa assulta AH2 to LD50 for sixth-instar larvae of Helicoverpa assulta at 1.8 to 183360 mg/l
Helicoverpa assulta [12] = assay: Resistance factor, ratio of LD50 for sixth-instar larvae of Helicoverpa assulta YN6 to LD50 for sixth-instar larvae of Helicoverpa assulta at 1.8 to 183360 mg/l
Helicoverpa assulta [13] = assay: Resistance factor, ratio of LD50 for sixth-instar larvae of Helicoverpa assulta FJ3 to LD50 for sixth-instar larvae of Helicoverpa assulta at 1.8 to 183360 mg/l
Helicoverpa assulta [14] = assay: Resistance factor, ratio of LD50 for sixth-instar larvae of Helicoverpa assulta YN3 to LD50 for sixth-instar larvae of Helicoverpa assulta at 39 to 12630 mg/l
Helicoverpa assulta [15] = assay: Insecticidal activity against sixth-instar larvae of Helicoverpa assulta GZ5 at 39 to 12630 mg/l after 48 hr by chi-squared analysis
Helicoverpa assulta [16] = assay: Insecticidal activity against sixth-instar larvae of Helicoverpa assulta YN1 at 39 to 12630 mg/l after 48 hr by chi-squared analysis
Helicoverpa assulta [17] = assay: Insecticidal activity against sixth-instar larvae of Helicoverpa assulta HN2 at 39 to 12630 mg/l after 48 hr by chi-squared analysis
Helicoverpa assulta [18] = assay: Insecticidal activity against sixth-instar larvae of Helicoverpa assulta AH2 at 39 to 12630 mg/l after 48 hr by chi-squared analysis
Helicoverpa assulta [19] = assay: Resistance factor, ratio of LD50 for sixth-instar larvae of Helicoverpa assulta AH2 to LD50 for sixth-instar larvae of Helicoverpa assulta at 39 to 12630 mg/l
Helicoverpa assulta [20] = assay: Insecticidal activity against sixth-instar larvae of Helicoverpa assulta HB1 at 39 to 12630 mg/l after 48 hr by chi-squared analysis
Helicoverpa assulta [21] = assay: Resistance factor, ratio of LD50 for sixth-instar larvae of Helicoverpa assulta GZ1 to LD50 for sixth-instar larvae of Helicoverpa assulta at 39 to 12630 mg/l
Helicoverpa assulta [22] = assay: Resistance factor, ratio of LD50 for sixth-instar larvae of Helicoverpa assulta SD1 to LD50 for sixth-instar larvae of Helicoverpa assulta at 39 to 12630 mg/l
Helicoverpa assulta [23] = assay: Resistance factor, ratio of LD50 for sixth-instar larvae of Helicoverpa assulta YN5 to LD50 for sixth-instar larvae of Helicoverpa assulta at 39 to 12630 mg/l
Helicoverpa assulta [24] = assay: Insecticidal activity against sixth-instar larvae of Helicoverpa assulta GZ2 at 39 to 12630 mg/l after 48 hr by chi-squared analysis
Helicoverpa assulta [25] = assay: Insecticidal activity against sixth-instar larvae of Helicoverpa assulta SD1 at 21 to 3390 mg/l after 48 hr by chi-squared analysis
Helicoverpa assulta [26] = assay: Insecticidal activity against sixth-instar larvae of Helicoverpa assulta AH1 at 21 to 3390 mg/l after 48 hr by chi-squared analysis
Helicoverpa assulta [27] = assay: Insecticidal activity against sixth-instar larvae of Helicoverpa assulta YN6 at 21 to 3390 mg/l after 48 hr by chi-squared analysis
Helicoverpa assulta [28] = assay: Resistance factor, ratio of LD50 for sixth-instar larvae of Helicoverpa assulta SD1 to LD50 for sixth-instar larvae of Helicoverpa assulta at 21 to 3390 mg/l
Helicoverpa assulta [29] = assay: Resistance factor, ratio of LD50 for sixth-instar larvae of Helicoverpa assulta YN6 to LD50 for sixth-instar larvae of Helicoverpa assulta at 21 to 3390 mg/l
Helicoverpa assulta [30] = assay: Resistance factor, ratio of LD50 for sixth-instar larvae of Helicoverpa assulta SD2 to LD50 for sixth-instar larvae of Helicoverpa assulta at 21 to 3390 mg/l
Helicoverpa assulta [31] = assay: Resistance factor, ratio of LD50 for sixth-instar larvae of Helicoverpa assulta HN2 to LD50 for sixth-instar larvae of Helicoverpa assulta at 21 to 3390 mg/l
Helicoverpa assulta [32] = assay: Insecticidal activity against sixth-instar larvae of Helicoverpa assulta GZ5 at 21 to 3390 mg/l after 48 hr by chi-squared analysis
Helicoverpa assulta [33] = assay: Insecticidal activity against sixth-instar larvae of Helicoverpa assulta YN7 at 21 to 3390 mg/l after 48 hr by chi-squared analysis
Helicoverpa assulta [34] = assay: Resistance factor, ratio of LD50 for sixth-instar larvae of Helicoverpa assulta YN1 to LD50 for sixth-instar larvae of Helicoverpa assulta at 21 to 3390 mg/l
Helicoverpa assulta [35] = assay: Resistance factor, ratio of LD50 for sixth-instar larvae of Helicoverpa assulta YN4 to LD50 for sixth-instar larvae of Helicoverpa assulta at 21 to 3390 mg/l

`CC(C)C(C(=O)OC(C#N)c1cccc(Oc2ccccc2)c1)c1ccc(Cl)cc1` (stereo not given) [FENVALERATE] was tested, and the LD90 (Helicoverpa assulta [1]) was 7.63 µg/g, the LD50 (Helicoverpa assulta [1]; Helicoverpa assulta, HN2, 48 h) was 1.17 mg/kg and the LD90 (Helicoverpa assulta [2]) was 9100 µg/g. The LD50 (Helicoverpa assulta [2]; Helicoverpa assulta, YN8, 48 h) was 2860 mg/kg, the Ratio (Helicoverpa assulta [3]) was 5.83 and the Ratio (Helicoverpa assulta [4]) was 1860. The Ratio (Helicoverpa assulta [5]) was 824, the LD90 (Helicoverpa assulta [6]) was 1043 µg/g and the LD50 (Helicoverpa assulta [6]; Helicoverpa assulta, GZ1, 48 h) was 301 mg/kg. For the same compound, the LD90 (Helicoverpa assulta [7]) was 5.67 µg/g, the LD50 (Helicoverpa assulta [7]; Helicoverpa assulta, FJ1, 48 h) was 1.46 mg/kg and the Ratio (Helicoverpa assulta [8]) was 1403. The Ratio (Helicoverpa assulta [9]) was 8412, the Ratio (Helicoverpa assulta [10]) was 1546 and the Ratio (Helicoverpa assulta [11]) was 415. The Ratio (Helicoverpa assulta [12]) was 4115 and the Ratio (Helicoverpa assulta [13]) was 9.06.

In the case of `CCOP(=S)(OCC)O/N=C(\C#N)c1ccccc1` [PHOXIM], the Ratio (Helicoverpa assulta [14]) is reported as 12.5, the LD90 (Helicoverpa assulta [15]) is reported as 33.7 µg/g and the LD50 (Helicoverpa assulta [15]; Helicoverpa assulta, GZ5, 48 h) is reported as 16.6 mg/kg. For the same compound, the LD90 (Helicoverpa assulta [16]) was 57.3 µg/g, the LD50 (Helicoverpa assulta [16]; Helicoverpa assulta, YN1, 48 h) was 20.4 mg/kg and the LD90 (Helicoverpa assulta [17]) was 19.9 µg/g. The LD50 (Helicoverpa assulta [17]; Helicoverpa assulta, HN2, 48 h) was 8.22 mg/kg, the LD90 (Helicoverpa assulta [18]) was 33.5 µg/g and the LD50 (Helicoverpa assulta [18]; Helicoverpa assulta, AH2, 48 h) was 16.7 mg/kg. The Ratio (Helicoverpa assulta [19]) was 7.13, the LD90 (Helicoverpa assulta [20]) was 18.8 µg/g and the LD50 (Helicoverpa assulta [20]; Helicoverpa assulta, HB1, 48 h) was 8.16 mg/kg. It also gave a Ratio (Helicoverpa assulta [21]) of 14.3, a Ratio (Helicoverpa assulta [22]) of 5.09 and a Ratio (Helicoverpa assulta [23]) of 11. The LD90 (Helicoverpa assulta [24]) was 101 µg/g and the LD50 (Helicoverpa assulta [24]; Helicoverpa assulta, GZ2, 48 h) was 25.3 mg/kg.

`CNC(=O)ON=C(C)SC` [METHOMYL] was tested, and the LD90 (Helicoverpa assulta [25]) was 19.5 µg/g, the LD50 (Helicoverpa assulta [25]; Helicoverpa assulta, SD1, 48 h) was 5.68 mg/kg and the LD90 (Helicoverpa assulta [26]) was 168 µg/g. The LD50 (Helicoverpa assulta [26]; Helicoverpa assulta, AH1, 48 h) was 53.6 mg/kg, the LD90 (Helicoverpa assulta [27]) was 66.2 µg/g and the LD50 (Helicoverpa assulta [27]; Helicoverpa assulta, YN6, 48 h) was 19.7 mg/kg. For the same compound, the Ratio (Helicoverpa assulta [28]) was 3.93, the Ratio (Helicoverpa assulta [29]) was 13.7 and the Ratio (Helicoverpa assulta [30]) was 6.17. It also gave a Ratio (Helicoverpa assulta [31]) of 2.93, an LD90 (Helicoverpa assulta [32]) of 64.6 µg/g and an LD50 (Helicoverpa assulta [32]; Helicoverpa assulta, GZ5, 48 h) of 21 mg/kg. The LD90 (Helicoverpa assulta [33]) was 143 µg/g, the LD50 (Helicoverpa assulta [33]; Helicoverpa assulta, YN7, 48 h) was 39 mg/kg and the Ratio (Helicoverpa assulta [34]) was 31.6. The Ratio (Helicoverpa assulta [35]) was 11.5.

Reference: ChEMBL document CHEMBL3046781, “Resistance of Helicoverpa assulta (Guenée) (Lepidoptera: Noctuidae) to fenvalerate, phoxim and methomyl in China” (2009)
